# Measurements taken from PMC8850433, “CRISPR-assisted rational flux-tuning and arrayed CRISPRi screening of an L-proline exporter for L-proline hyperproduction” (Nature Communications, 2022).
# Target: T1, Cgl2622 (Corynebacterium glutamicum, UniProt Q79VD1)
# T1 construct: full-length membrane exporter, expressed from plasmid under IPTG-inducible Ptrc in cgl2622-deleted C. glutamicum
# Format: cell-based
# Details: intact C. glutamicum cells, CGXII medium, 20 g/L glucose, 3 mM Thr-Pro peptide, 30 °C; efflux
# T1 sequence (Q79VD1 1-489): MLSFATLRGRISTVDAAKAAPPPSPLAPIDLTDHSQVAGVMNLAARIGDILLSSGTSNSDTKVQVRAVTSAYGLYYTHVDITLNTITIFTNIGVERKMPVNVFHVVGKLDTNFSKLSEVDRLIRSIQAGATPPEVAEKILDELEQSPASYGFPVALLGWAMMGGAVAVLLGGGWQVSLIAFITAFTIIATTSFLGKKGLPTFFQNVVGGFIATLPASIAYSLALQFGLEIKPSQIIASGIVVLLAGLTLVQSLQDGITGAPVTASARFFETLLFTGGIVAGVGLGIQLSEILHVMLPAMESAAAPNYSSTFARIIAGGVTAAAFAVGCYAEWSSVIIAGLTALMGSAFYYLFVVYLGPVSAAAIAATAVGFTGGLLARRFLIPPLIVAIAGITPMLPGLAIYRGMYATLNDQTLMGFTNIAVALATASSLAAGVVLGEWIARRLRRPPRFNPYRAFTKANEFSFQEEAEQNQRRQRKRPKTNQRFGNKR
smiles,measurement,value
O=C(O)[C@@H]1CCCN1 [L-proline],"Thr-Pro peptide uptake and amino acid export assay, deletion vs complementation,",These results further verify the function of Cgl2622 as an L-proline exporter.
